Data as given in patent US12233088B2 (Alexion Pharmaceuticals, Inc., priority 2017, dated 2025).
Like-named read-outs stand apart in the source and are kept apart here.

Legend:
[1] = system: patients with Wilson's disease
Description: This open-label, phase 2 study was performed at 11 hospitals in the USA and in Europe. […] Investigators, other hospital personnel, and patients were aware of the identity of the treatment. […] This study is registered with ClinicalTrials.gov, number NCT02273596.
The open-label, phase 2 study was performed at 11 hospitals. Eligible patients were aged 18 years or older, with a diagnosis of Wilson's disease established by a Leipzig score of 4 or more. […] Patients with decompensated hepatic cirrhosis, a MELD score greater than 11, or a modified Nazer score (revised King's score) greater than 6 were excluded.
Investigators, other hospital personnel, patients, and the study sponsor were aware of the identity of the treatment.
Up-titration was stepwise, with each increase restricted to double the previous dose, and not permitted if NCC was within or below the normal range.
Using values for plasma total copper and ceruloplasmin concentrations, NCC was calculated by subtracting the amount of copper bound to ceruloplasmin from total copper concentrations (determined with inductively coupled plasma mass spectrometry). […] The correction method used the average molar ratio of copper to molybdenum in the tripartite complex, which was determined using the relationship between NCC and plasma molybdenum concentrations and confirmed by two independent methods. The NCC correction method was validated using random selections of test and validation samples.
The primary endpoint was change in NCCcorrected from baseline to 24 weeks, which was measured as NCC concentrations corrected for copper contained in tetrathiomolybdate-copper-albumin complexes (NCCcorrected).
Secondary endpoints were safety and tolerability, change in and time to normalisation of NCCcorrected level clinical neurological disease, liver function, clinical symptoms, health-related quality of life (HRQoL), psychiatric status, and pharmacokinetics and exchangeable copper, speciation profiling, and urinary copper. Psychiatric status, pharmacokinetics data, and copper endpoints were also measured. Neurological disease was assessed as patient-reported disability, measured with UWDRS part II, and also as trained-rater-assessed neurological status, measured with UWDRS part III. Liver synthetic function was assessed by monitoring of international normalised ratio (INR) and albumin concentrations. Additionally, changes in liver function were assessed by modified Nazer score (based on bilirubin, INR, AST, albumin, and white blood cell count) and, in a post-hoc analysis, by the MELD score (based on bilirubin, creatinine, INR, and cause of liver disease). HRQoL was measured with the EuroQoL 5 Dimensions Visual Analogue Scale (EQ VAS).
Adverse event (AE) data was collected for onset, duration, seriousness, and severity, with relation to study medication determined by the investigator.
Since the aim of the study was to present primarily descriptive statistics, no formal power calculations were performed. Changes in copper concentrations and scores were summarised over time with descriptive statistics. Mixed-model repeated-measures analysis with a fixed-effect term were applied for clinic visit, and a spatial power covariance structure was applied to model the within-participant errors. A spatial power covariance structure was selected because it assumes that the within-participant correlation decays as the time distance increases between repeated measures. SAS (version 9.3) was utilised to provide change in least-squares mean over time, and the associated 95% CIs, SE, and two-sided p values.

[2] = system: Wilson disease patients with and without cirrhosis
Description: Mortality in Wilson disease is usually secondary to decompensated hepatic cirrhosis and liver failure; therefore, liver function is an important factor in determining appropriate treatment regimens. The outcome of patients with and without cirrhosis using in the patient pool of Example 1, supplemented with week 48 data generated in the 3-year extension phase of the initial trial, was analyzed.
For the analyses described in this example, patients were characterized as having cirrhosis based on medical history (biopsy or imaging) or based on estimates of AST to Platelet Ratio Index (APRI) (AST refers to aspartate aminotransferase). Summary statistics were calculated for Baseline demographics, NCCcorr levels, ALT levels, MELD and modified Nazer scores, Albumin concentration, International normalized ratio (INR), Disability and neurological status using the unified Wilson's disease rating scale, and adverse events (AEs). […] Patient flow for the extension study is depicted in FIG. 12.

[3] = baseline to week 24, least-squares mean, mixed-model repeated measures
[4] = baseline to week 24, mixed-model repeated measures
[5] = mixed-model repeated measures using all visits up to week 24
[6] = core study, patients without cirrhosis
[7] = extension phase, with cirrhosis

C[N+](C)(C)CCO.C[N+](C)(C)CCO.[SH-].[SH-].[S]=[Mo]=[S] [WTX101, bis-choline tetrathiomolybdate]
Patients reporting at least one treatment-emergent adverse event, Number of Patients (%) ([1]; 24 weeks, N=28): 17 (61%) | adverse event ALT increased, Number of Patients (%) ([1]; 24 weeks, N=28): 8 (29%) | adverse event AST increased, Number of Patients (%) ([1]; 24 weeks, N=28): 7 (25%) | adverse event Blood alkaline phosphatase increased, Number of Patients (%) ([1]; 24 weeks, N=28): 3 (11%) | adverse event Dry Skin, Number of Patients (%) ([1]; 24 weeks, N=28): 2 (7%) | adverse event GGT increased, Number of Patients (%) ([1]; 24 weeks, N=28): 8 (29%) | adverse event Headache, Number of Patients (%) ([1]; 24 weeks, N=28): 2 (7%) | adverse event Hepatic enzyme increased, Number of Patients (%) ([1]; 24 weeks, N=28): 4 (14%) | adverse event Nausea, Number of Patients (%) ([1]; 24 weeks, N=28): 2 (7%) | adverse event Tremor, Number of Patients (%) ([1]; 24 weeks, N=28): 2 (7%) | Relationship to the study drug as deemed by the investigator: ALT increased ([1]; SAE, baseline to week 24): Possible | Relationship to the study drug as deemed by the investigator: Abnormal behavior ([1]; SAE, baseline to week 24): Unrelated | Relationship to the study drug as deemed by the investigator: Adjustment disorder ([1]; SAE, baseline to week 24): Unrelated | Relationship to the study drug as deemed by the investigator: Affective disorder ([1]; SAE, baseline to week 24): Unrelated | Relationship to the study drug as deemed by the investigator: Agranulocytosis ([1]; SAE, baseline to week 24): Probable | Relationship to the study drug as deemed by the investigator: Gait disturbance ([1]; SAE, baseline to week 24): Unlikely | Relationship to the study drug as deemed by the investigator: Hepatic enzyme increased (severe ALT/AST elevation) ([1]; SAE, baseline to week 24): Probable | Relationship to the study drug as deemed by the investigator: Mania ([1]; SAE, baseline to week 24): Unlikely | Relationship to the study drug as deemed by the investigator: Personality disorder ([1]; SAE, baseline to week 24): Unlikely | Relationship to the study drug as deemed by the investigator: Psychotic disorder ([1]; SAE, baseline to week 24): Unrelated | Relationship to the study drug as deemed by the investigator: Decline in neurological functioning ([1]; SAE, baseline to week 24, likely due to disease progression): Possible | week by which mean NCCcorrected was below the upper limit of normal ([1]; ULN 2.3 μmol/L): ≤ 12 week | time to normalisation of liver function tests ([1]; after dose adjustments or treatment interruption): 1-2 weeks | time of occurrence of liver enzyme increases ([1]; after initiation, at 30 mg/day or higher): 4-10 weeks | patients who achieved or maintained normalised NCCcorrected, n (%) ([1]; at 24 weeks, of 28 patients): 16 (57%) | patients with at least a 25% reduction from baseline NCCcorrected, n (%) ([1]; at 24 weeks, of 28 patients): 4 (14%) | patients meeting the criteria for treatment success ([1]; at 24 weeks, of 28 patients, normalised NCCcorrected (≤2.3 μmol/L) or ≥25% reduction): 71% | reduction of mean NCCcorrected ([1]; baseline to week 24): 72% | UWDRS part II score Change from baseline [1, 3]: −3.7 | UWDRS part III score Change from baseline [1, 3]: −8.7 | Albumin Change from baseline [1, 4]: 2.3 g/L | Bilirubin Change from baseline [1, 4]: 0.02 mg/dL | EQVAS Change from baseline [1, 4]: 9.2 | INR Change from baseline [1, 4]: −0.05 | Modified Nazer score Change from baseline [1, 4]: −0.4 | Platelets Change from baseline [1, 4]: 2.3 1 × 10^9/L | MELD score Change from baseline ([1]; baseline to week 24, post-hoc, mixed-model repeated measures): −0.5 | increase of median peak ALT from baseline ([1]; in the 11 patients with liver enzyme increases): 7.2 times | median peak ALT ([1]; in the 11 patients with liver enzyme increases, range 101-1341): 197 U/L | ALT Change from baseline [1, 5]: 48.4 U/L | AST Change from baseline [1, 5]: 3.8 U/L | GGT Change from baseline [1, 5]: 60.7 U/L | most pronounced ALT signal ([1]; one patient, 30 mg/day): 1341 U/L | second highest ALT signal ([1]; one patient, 120 mg/day): 615 U/L | patients with UWDRS part II score improved by at least one point, n (%) ([1]; week 24): 12 (57%) | patients with UWDRS part III score improved by 4 or more points, n (%) ([1]; week 24): 14 (67%) | Modified Nazer score Week 24 Mean (SD) ([1]; week 24, n=21, baseline 1.4 (1.0)): 1.1 (0.6) | EQVAS Week 24 Mean (SD) ([1]; week 24, n=23, baseline 65.9 (23.0)): 74.3 (16.9) | INR Week 24 Mean (SD) ([1]; week 24, observed cases, n=22, baseline 1.11 (0.16)): 1.06 (0.08) | Bilirubin Week 24 Mean (SD) ([1]; week 24, observed cases, n=23, baseline 0.51 (0.29)): 0.49 (0.27) mg/dL | NCCcorrected Week 24 Mean (SD) ([1]; week 24, observed cases, n=23, baseline 3.6 (2.1)): 0.9 (1.0) μmol/L | AST Week 24 Mean (SD) ([1]; week 24, observed cases, n=23, baseline 36.6 (27.6)): 28.2 (9.9) U/L | Albumin Week 24 Mean (SD) ([1]; week 24, observed cases, n=23, baseline 39.2 (5.4)): 40.9 (3.2) g/L | ALT Week 24 Mean (SD) ([1]; week 24, observed cases, n=23, baseline 42.6 (32.8)): 36.8 (18.7) U/L | GGT Week 24 Mean (SD) ([1]; week 24, observed cases, n=23, baseline 70.1 (64.0)): 97.5 (77.7) U/L | Platelets Week 24 Mean (SD) ([1]; week 24, observed cases, n=23, baseline 155.5 (72.5)): 147.9 (63.2) 1 × 10^9/L | MELD score Week 24 Mean (SD) ([1]; week 24, post-hoc, n=21, baseline 7.7 (1.9)): 7.2 (1.8) | patients with ALT elevations requiring dose adjustments ([2]; core study, patients with cirrhosis): five | patients with ALT elevations requiring dose adjustments [2, 6]: seven | patients with study withdrawal associated with ALT elevations [2, 6]: three | patients with adverse events (AEs) ([2]; core study, with cirrhosis): 10 | patients with increased ALT and GGT levels (each) ([2]; core study, with cirrhosis): three | patients with increased AST levels ([2]; core study, with cirrhosis): four | patients with adverse events (AEs) ([2]; core study, without cirrhosis): 12 | patients with increased ALT and GGT levels (each) ([2]; core study, without cirrhosis): five | patients with increased AST levels ([2]; core study, without cirrhosis): four | patients with tremor (AE) ([2]; core study, without cirrhosis): four | patients with SAEs possibly related to WTX101 ([2]; extension phase, cirrhosis group, neutropenia, hepatolenticular degeneration): two | patients who experienced AEs [2, 7]: nine | patients with urinary tract infection [2, 7]: four | patients who experienced AEs ([2]; extension phase, without cirrhosis): six | liver function ([2]; up to 48 weeks, patients with and without cirrhosis): stable | ALT elevations requiring dose adjustments ([2]; week 24 to week 48, regardless of cirrhosis status): no ALT elevations requiring dose adjustments occurred | patients with severe adverse events (SAEs) ([2]; weeks 0-48, with cirrhosis): four | patients with severe adverse events (SAEs) ([2]; weeks 0-48, without cirrhosis): six
